How the values were obtained:
human primary islets = test: Glucose stimulated insulin secretion in human primary islets, insulin by ELISA; format: cell-based; settings: 1 μM, FIG. 3
Description: The insulin concentration in the collected supernatants were measured by an ELISA kit according to the manufacturer recommendations and using a rat insulin antibody (Insulin rat high range ELISA Alpco Cat no 80-INSRTH-E10). Very briefly, rat monoclonal antibodies specific for insulin were immobilized to 96-well plates. Standards, samples and controls were added to the appropriate wells with a horseradish peroxidase enzyme-labeled monoclonal antibody (Conjugate). After incubation, the microplates were washed to remove unbound Conjugate and a TMB substrate solution was added to react with the bound Conjugate. Finally, after addition of a stop solution, the optical density was measured at 450 nm using a reference wavelength of 620 nm. The intensity of the yellow color is directly proportional to the amount of insulin within the samples. Human primary islets: Human islets from non-diabetic deceased male donors were purchased from Tebu-bio (Le-Perray-en-Yvelines, France). […] Insulin in supernatants was determined with specific ELISA kits, according to the manufacturer's instructions (Ultrasensitive Insulin ELISA, ALPCO Diagnostics, Salem, USA). […] Insulin was measured in the cell lysates using specific ELISA kits (Ultrasensitive Insulin ELISA, ALPCO Diagnostics) and normalised to DNA content.

INS-1 cells = test: Glucose stimulated insulin secretion (GSIS) in INS-1 cells, insulin by ELISA; format: cell-based, rat; settings: FIG. 2
Description: INS-1 cellular model: The β pancreatic INS-1 cells were selected for their insulin secretion profile in response to glucose and to other physiological or pharmacological insulin secretagogues such as sulfonylureas and GLP-1. The cells were cultured in complete medium, RPMI 1640 11 mM glucose supplemented with 1 mM sodium pyruvate, 50 μM 2-mercaptoethanol, 2 mM glutamine, 10 mM HEPES, 100 IU/mL penicillin, 100 μg/mL streptomycin and 10% heat-inactivated foetal calf serum (FCS), as described by Asfari et al. (Endocrinology 130: 167-178, 1992). For the insulin secretion assay, INS-1 cells were plated and cultured in 96-well poly ornithine coated plates. The day before insulin secretion test, the medium were removed and replaced by RPMI 5 mM glucose supplemented with FCS 1%. The day of the insulin secretion test, the cells were washed with Krebs-Ringer Bicarbonate HEPES buffer (KRBH; pH 7.4) 0.1% BSA and pre-incubated for 30 min at 37° C. in KRBH 0.1% BSA containing 2.8 mM glucose. The cells were then washed again with KRBH and incubated with the tested ingredients for 60 min in KRBH 0.1% BSA containing glucose (5 or 16 mM). The supernatants were collected and frozen before insulin determination. The insulin concentration in the collected supernatants were measured by an ELISA kit according to the manufacturer recommendations and using a rat insulin antibody (Insulin rat high range ELISA Alpco Cat no 80-INSRTH-E10). Very briefly, rat monoclonal antibodies specific for insulin were immobilized to 96-well plates. Standards, samples and controls were added to the appropriate wells with a horseradish peroxidase enzyme-labeled monoclonal antibody (Conjugate). After incubation, the microplates were washed to remove unbound Conjugate and a TMB substrate solution was added to react with the bound Conjugate. Finally, after addition of a stop solution, the optical density was measured at 450 nm using a reference wavelength of 620 nm. The intensity of the yellow color is directly proportional to the amount of insulin within the samples. […]

[1] = humans; cited from earlier work

## O[C@H]1[C@H](O)[C@@H](O)[C@H](O)[C@@H](O)[C@@H]1O [scyllo-inositol, (1r,2r,3r,4r,5r,6r)-Cyclohexane-1,2,3,4,5,6-hexol]
Human primary islets
  effect on insulin secretion over the control condition (5 mM glucose): synergistic effect
INS-1 cells; 20 μM scyllo-inositol
  glucose stimulated insulin secretion (GSIS), expressed as a percentage versus glucose: 120%
INS-1 cells; 2000 μM scyllo-inositol
  glucose stimulated insulin secretion (GSIS), expressed as a percentage versus glucose: 142%
INS-1 cells; doses from 20 to 2000 μM
  concentration at which GSIS reaches a plateau: 1000 to 2000 µM
[1]
  mean time to reach the maximum level after ingestion: about 3.8 h
